Molecules are shown by their SMILES. Like-named read-outs stand apart in the source and are kept apart here.

Broadly, the Ki is the equilibrium dissociation constant of an inhibitor or competing ligand from its target. What is called IC50 is the concentration needed to halve the response being measured.

The target in one assay is D2 (Homo sapiens, UniProt P14416). To be noted: read-out: Ki (nM) D2; Table 2; cited from earlier work.
The next assay has as its target T1, 5-HT1A (Homo sapiens, UniProt P08908).
T1 sequence (P08908 1-422): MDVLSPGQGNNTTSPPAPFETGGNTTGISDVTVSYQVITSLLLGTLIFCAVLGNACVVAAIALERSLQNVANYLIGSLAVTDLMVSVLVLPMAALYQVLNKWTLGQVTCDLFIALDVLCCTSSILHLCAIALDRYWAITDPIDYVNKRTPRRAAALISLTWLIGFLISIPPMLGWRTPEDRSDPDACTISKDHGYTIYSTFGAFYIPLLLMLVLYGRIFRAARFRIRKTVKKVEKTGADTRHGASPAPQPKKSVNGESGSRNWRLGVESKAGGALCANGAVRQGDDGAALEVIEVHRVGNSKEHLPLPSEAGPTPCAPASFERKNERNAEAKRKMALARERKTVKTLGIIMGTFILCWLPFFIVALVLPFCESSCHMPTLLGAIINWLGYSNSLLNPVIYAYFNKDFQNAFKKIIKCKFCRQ

The target in a further assay is a1. To be noted: Table 2; cited from earlier work.
For assay [1], the system named is recognition memory. As to the kind of experiment: Novel Object Recognition Model (Example 1). It counts as in vivo, rats. To be noted: for effect on the cognitive enhancing properties of Aricept in the Novel Object Recognition Model: co-administered with Aricept, lowers dose of both agents required for efficacy. The method, then:
(§1) Novel Object Recognition Model: Male Long-Evans hooded rats (˜200 g at the time of testing) were individually housed with ad libitum access to food and water. Novel object recognition (NOR) training and testing was performed in a circular field (diameter ˜70 cm, 30 cm high) constructed out of plastic and containing soiled bedding (without feces). The field was surrounded by black curtains to mask extra-field cues and was located in a dimly lit room (˜10 lux at the level of the area) in the presence of white noise (˜65 dB). Animal performance was tracked by video and monitored by an experimenter located outside of the testing room. Objects, constructed with Duplo® blocks (Lego), could be affixed to the floor in one of four locations spaced evenly around the field approximately 10 cm from the field's edge. To avoid possible olfactory cues, multiple copies of the objects were used throughout the study and were cleaned with a 30% ethanol solution between animals.
The visual recognition task was divided into 3 sessions—habituation, a sample trial and a choice trial. During habituation the animals were placed into the field containing 2 identical yellow cubes (˜10 cm×10 cm×10 cm) and were allowed to explore the field for ten minutes. Following habituation, rats were returned to their home cage. One day after habituation, animals were dosed with drug (either a 5-HT1A antagonist compound, a cognitive enhancer or both a 5-HT1A antagonist compound and a cognitive enhancer) and following the pretreatment interval the sample trial was initiated. […] The amount of time investigating the objects was recorded for the entire trial. […]
(§2) The effect of treatment on object exploration during trial one was examined using a one-way ANOVA on total contact time followed by Fisher's LSD group mean pair-wise comparisons. The amount of time exploring the novel and familiar objects across treatment groups was analyzed using a repeated measures ANOVA followed by Fisher's LSD post-hoc comparisons. […]

Assay [2] deals with recognition memory. In words: Novel Object Recognition, Compound 405 with Aricept (Example 2). It counts as in vivo, mice. To be noted: compared between vehicle, Aricept 0.5 mg/kg, Compound 405 0.3 mg/kg and combination groups. As to the method:
as §1, with “Objects, constructed with Duplo® blocks (Lego), could be affixed to the floor in one of four locations spaced evenly around the field approximately 10 cm from the field's edge. To avoid possible olfactory cues, multiple copies of the objects were used throughout the study and were cleaned with a 30% ethanol solution between animals.” left out
The visual recognition task was divided into 3 sessions—habituation, a sample trial and a choice trial. […] The amount of time investigating the objects was recorded for the entire trial. […]
as §2
Cognitive enhancement was measured using the Novel Object Recognition procedure described in Example 1. […]

In a further assay the target is 5-HT2A (Homo sapiens, UniProt P28223). The settings on record: read-out: Ki (nM) 5-HT2A; Table 1; cited from earlier work.
The target in the next assay is *1^A. The settings on record: Table 4; cited from earlier work.
Where [3] appears, read: read-out: Ki (nM) 5-HT1A; Table 2; cited from earlier work.
Setting [4] is: Table 3; read-out: IC50 (nM) 5-HT1A; cited from earlier work.
Setting [5] is: Table 2; read-out: Ki (nM) 5-HT1A; cited from earlier work.
Where [6] appears, read: read-out: Ki (nM) 5-HT1A; Table 4; cited from earlier work.

D2, sequence (P14416 whole entry): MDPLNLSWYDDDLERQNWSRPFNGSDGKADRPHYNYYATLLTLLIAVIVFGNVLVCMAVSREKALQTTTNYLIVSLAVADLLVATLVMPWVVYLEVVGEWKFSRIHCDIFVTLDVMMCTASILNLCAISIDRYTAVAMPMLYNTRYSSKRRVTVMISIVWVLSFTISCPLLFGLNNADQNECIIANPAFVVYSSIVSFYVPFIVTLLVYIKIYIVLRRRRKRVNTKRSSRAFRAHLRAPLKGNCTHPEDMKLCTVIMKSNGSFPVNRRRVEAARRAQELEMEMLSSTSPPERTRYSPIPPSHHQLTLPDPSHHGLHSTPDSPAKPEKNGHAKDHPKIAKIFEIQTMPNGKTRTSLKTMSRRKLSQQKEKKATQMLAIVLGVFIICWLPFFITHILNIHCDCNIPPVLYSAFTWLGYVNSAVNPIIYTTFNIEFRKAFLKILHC
5-HT2A, sequence (P28223 whole entry): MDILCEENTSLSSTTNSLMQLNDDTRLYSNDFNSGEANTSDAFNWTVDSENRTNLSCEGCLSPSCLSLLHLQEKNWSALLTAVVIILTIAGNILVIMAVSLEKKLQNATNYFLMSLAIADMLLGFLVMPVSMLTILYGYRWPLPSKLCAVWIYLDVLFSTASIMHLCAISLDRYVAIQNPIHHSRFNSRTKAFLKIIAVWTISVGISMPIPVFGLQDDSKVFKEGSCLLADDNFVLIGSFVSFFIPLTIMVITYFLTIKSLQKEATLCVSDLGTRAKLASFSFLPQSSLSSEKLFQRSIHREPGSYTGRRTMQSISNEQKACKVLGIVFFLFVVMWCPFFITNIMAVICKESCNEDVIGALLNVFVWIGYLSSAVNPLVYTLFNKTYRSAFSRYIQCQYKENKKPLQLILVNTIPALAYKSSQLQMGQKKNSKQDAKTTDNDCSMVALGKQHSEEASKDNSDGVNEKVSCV

In the case of `COc1ccccc1N1CCN(CC(C(=O)NC(C)(C)C)c2ccccc2)CC1` (racemic) [Compound Y (R)], the Ki at D2 was 4 nM; on 5-HT1A (setting [3]), 104 nM; at a1, 1240 nM. With `COc1ccccc1N1CCN(CC(C(=O)NC(C)(C)C)c2ccccc2)CC1` (racemic) [Compound Y (S)], the Ki at D2 was 20 nM; at 5-HT1A (setting [3]), 22 nM; at a1, 1440 nM. Regarding `COc1ccccc1N1CCN(CC(C(=O)NC(C)(C)C)c2ccccc2)CC1` (racemic) [Compound Y (±)], the values for the Ki on D2, at 5-HT1A (setting [3]) and at a1 were 14 nM, 20 nM and 718 nM, respectively. `COc1cc(N2CCN(C3CCN(c4ccc(F)c5c(OC)cc(C(F)(F)F)nc45)CC3)CC2)c2ncccc2c1` [5-fluoro-4-methoxy-8-(4-(4-(6-methoxyquinolin-8-yl)piperazin-1-yl)piperidin-1-yl)-2-(trifluoromethyl)quinoline]: the “effect on the cognitive enhancing properties of Aricept in the Novel Object Recognition Model” value in the assay with recognition memory [1] is recorded as “synergistic effect”. Regarding `COc1cc(N2CCN(C3CCN(c4ccc(F)c5cccnc45)CC3)CC2)c2ncccc2c1` [5-fluoro-8-(4-(4-(6-methoxyquinolin-8-yl)piperazin-1-yl)piperidin-1-yl)quinoline], in the assay with recognition memory [1], the “effect on the cognitive enhancing properties of Aricept in the Novel Object Recognition Model” value is “synergistic effect”.

In the case of `COc1cc2c(cc1OC)C(=O)C(CC1CCN(Cc3ccccc3)CC1)C2` (stereo not shown) [Aricept®, donepezil], in the assay on recognition memory [1] (sub-threshold doses: Aricept 0.5 mg/kg i.p. or 5-HT1A antagonist 0.1 mg/kg p.o., 48 hour inter-trial interval), the “contact times familiar vs novel, administered separately” value is on record as “not statistically different”. Besides, the “exploration time (FIG. 1)” value in the assay on recognition memory [2] is recorded as “relatively similar”. Take `O=c1ccc(=O)n(-c2ccccc2)n1CCCCN1CCN(c2cccc(Cl)c2)CC1` [Compound 104]: the Ki on 5-HT2A was 1830 nM. Regarding `COc1ccccc1N1CCN(CCCn2c(=O)ccc(=O)n2-c2ccccc2)CC1` [Compound 105], the Ki on 5-HT2A is 2120 nM. As for `COc1ccccc1N1CCN(CCCCn2c(=O)ccc(=O)n2-c2ccccc2)CC1` [Compound 106], the Ki on 5-HT1A (read-out: Ki (nM) 5-HT1A; Table 1; cited from earlier work) is 51 nM; on 5-HT2A it was 1450 nM. For the molecule `OC1(c2ccc3c(c2)OCO3)CCC(N2CCN(Cc3ccccc3)CC2)CC1` (stereo not shown) [Compound 112], at 5-HT1A (setting [4]), the IC50 was 20 nM. For the molecule `COc1ccc(C2(O)CCC(N3CCN(Cc4ccccc4)CC3)CC2)cc1` (stereo not shown) [Compound 113], on 5-HT1A (setting [4]), the IC50 was 50 nM. Turning to `COc1cccc(CN2CCN(C3CCC(O)(c4ccc5c(c4)OCO5)CC3)CC2)c1` (stereo not shown) [Compound 114], the concentration for half-maximal inhibition (IC50) at 5-HT1A (setting [4]) is 2.2 nM. For the molecule `COc1ccccc1N1CCN(CC(C(=O)NC2CCCCC2)c2ccccc2)CC1` (stereo not shown) [Compound 118], the figures for the inhibition constant (Ki) on 5-HT1A (setting [3]) and at a1 were 10 nM and 1870 nM, respectively. In the case of `O=C(C1CCCCC1)N(CN1CCN(c2ccccc2O)CC1)c1ccccn1` [Compound 119], the IC50 on 5-HT1A (Table 2, starred value; read-out: 5-HT1A, data expressed as IC50 value (*); cited from earlier work) is 2.1 nM. For `CS(=O)(=O)Oc1ccccc1N1CCN(CN(C(=O)C2CCCCC2)c2ccccn2)CC1` [Compound 122], the Ki on 5-HT1A (setting [5]) is 7.25 nM. As for `O=C(C1CCCCC1)N(CN1CCN(c2ccccc2OS(=O)(=O)C(F)(F)F)CC1)c1ccccn1` [Compound 123], the Ki at 5-HT1A (setting [5]) was 36 nM. Turning to `COc1ccccc1N1CCN(CCN(C(=O)c2ccc(I)cc2)c2ccccn2)CC1` [Compound 124], the Ki is 19 nM at D2, 2.6 nM at 5-HT1A (setting [3]) and 35 nM on a1. Consider `COc1ccccc1N1CCN(CCN(C(=O)c2cccc(I)c2)c2ccccn2)CC1` [Compound 125], for which the Ki at 5-HT1A (setting [5]) is 1.7 nM. Take `COc1ccccc1N1CCN(CCN(C(=O)c2ccc(F)cc2)c2ccccn2)CC1` [Compound 127]: the Ki on 5-HT1A (setting [5]) is 3.3 nM. With `COc1ccccc1N1CCN(CCCSc2nc3sc4c(c3c(=O)n2N)CCC4)CC1` [Compound 129], the Ki is 9.26 nM on 5-HT1A (setting [6]) and 7.39 nM on *1^A. With `COc1ccccc1N1CCN(CCCSc2nc(N)c3c(C)c(C)sc3n2)CC1` [Compound 135], the Ki at 5-HT1A (setting [6]) is 2.45 nM; at *1^A, 10.8 nM.

`CCOc1ccccc1-c1nnc(SCCCN2CCN(c3ccccc3[N+](=O)[O-])CC2)s1` [Compound 137]: the figures for the Ki on 5-HT1A (setting [6]) and on *1^A were 135 nM and 437 nM, respectively. As for `C[C@H](CN(C(=O)C1CCCCC1)c1ccccn1)N1CCN(c2cccc3[nH]ccc23)CC1` [Compound 405, (R)-N-(2-methyl-(4-indolyl-1-piperazinyl)ethyl)-N-(2-pyridinyl)cyclohexane carboxamide], the “exploration time (FIG. 1)” value with recognition memory [2] was “relatively similar”. Regarding `COc1ccccc1N1CCN(CN(C(=O)C2CCCCC2)c2ccccn2)CC1` [Compound X], the Ki at D2 was 79 nM; at 5-HT1A (setting [3]) it was 0.24 nM; on a1, 45 nM.

(Values after patent US20080032965A1, “Method for enhancing cognitive function” (priority 2006, published 2008).)
